According to ChEMBL document CHEMBL2311263, “Dibenzosuberones as p38 mitogen-activated protein kinase inhibitors with low ATP competitiveness and outstanding whole blood activity” (J Med Chem, 2013):
The source made the active and inactive calls. The rule behind the calls is not given here.

Experiments:
[1] = target: T1, Mitogen-activated protein kinase 14 (Homo sapiens, UniProt Q16539); experiment: Inhibition of p38alpha MAP kinase in whole blood (unknown origin) assessed as lipopolysaccharide-stimulated TNF-alpha release measuring residual activity at 10 uM by ELISA
T1 sequence (Q16539 whole entry): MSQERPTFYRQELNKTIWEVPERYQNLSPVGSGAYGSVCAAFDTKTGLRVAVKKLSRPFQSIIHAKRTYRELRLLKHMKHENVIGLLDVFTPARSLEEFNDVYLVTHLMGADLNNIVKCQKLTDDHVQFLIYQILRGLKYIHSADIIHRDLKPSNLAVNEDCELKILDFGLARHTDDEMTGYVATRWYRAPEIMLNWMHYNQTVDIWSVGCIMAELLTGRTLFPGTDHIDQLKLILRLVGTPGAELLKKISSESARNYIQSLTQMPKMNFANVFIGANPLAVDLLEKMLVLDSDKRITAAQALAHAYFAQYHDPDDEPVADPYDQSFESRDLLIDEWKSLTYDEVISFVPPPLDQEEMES

[2] = target: T1, Mitogen-activated protein kinase 14; experiment: Inhibition of p38alpha MAP kinase (unknown origin) by ELISA
[3] = target: T1, Mitogen-activated protein kinase 14; experiment: Inhibition of p38alpha MAP kinase in whole blood (unknown origin) assessed as lipopolysaccharide-stimulated TNF-alpha release by ELISA
[4] = target: Mitogen-activated protein kinase 11 (Homo sapiens) (UniProt Q15759); experiment: Inhibition of p38beta MAP kinase (unknown origin)
Sequence of Mitogen-activated protein kinase 11 (Homo sapiens) (Q15759 whole entry): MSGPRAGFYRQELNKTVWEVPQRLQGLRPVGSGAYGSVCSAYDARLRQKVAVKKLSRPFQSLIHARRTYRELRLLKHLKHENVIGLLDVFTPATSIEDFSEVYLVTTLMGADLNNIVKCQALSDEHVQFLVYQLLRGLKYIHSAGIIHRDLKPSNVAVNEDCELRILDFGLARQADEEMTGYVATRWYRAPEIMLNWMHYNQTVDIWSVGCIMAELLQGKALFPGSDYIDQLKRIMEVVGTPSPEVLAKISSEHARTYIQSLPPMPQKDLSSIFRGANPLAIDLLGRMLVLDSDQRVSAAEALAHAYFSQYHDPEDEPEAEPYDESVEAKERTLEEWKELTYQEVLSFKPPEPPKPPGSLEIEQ

[5] = target: T1, Mitogen-activated protein kinase 14; details: Blood, 1 uM
[6] = target: Casein kinase I isoform epsilon (Homo sapiens) (UniProt P49674); experiment: Inhibition of CSNK1E (unknown origin)
Sequence of Casein kinase I isoform epsilon (Homo sapiens) (P49674 whole entry, looked up, canonical isoform): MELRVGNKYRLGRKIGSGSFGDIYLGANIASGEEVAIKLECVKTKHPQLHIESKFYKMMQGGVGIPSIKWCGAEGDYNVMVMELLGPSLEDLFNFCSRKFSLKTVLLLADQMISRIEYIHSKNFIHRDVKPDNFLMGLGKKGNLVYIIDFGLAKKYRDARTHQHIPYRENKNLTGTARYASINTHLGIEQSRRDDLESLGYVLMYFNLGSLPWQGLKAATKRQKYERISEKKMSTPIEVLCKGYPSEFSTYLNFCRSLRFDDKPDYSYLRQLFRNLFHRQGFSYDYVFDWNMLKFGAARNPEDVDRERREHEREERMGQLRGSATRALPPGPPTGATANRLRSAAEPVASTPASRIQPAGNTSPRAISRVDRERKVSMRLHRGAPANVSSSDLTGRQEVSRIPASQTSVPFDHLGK

Row | IC50 [2] [µM] | IC50 [3] [µM] | other results | Compound
1 | 0.044 | – | Activity [1]: 39% | O=C1c2ccc(Nc3ccc(F)cc3F)cc2CCc2ccc(C(=O)N3CCOCC3)cc21
2 | 0.003 | 0.018 | – | CN(C)CCNC(=O)c1ccc2c(c1)C(=O)c1ccc(Nc3ccc(F)cc3F)cc1CC2
3 | 0.002 | 0.036 | – | CSCCNC(=O)c1ccc2c(c1)C(=O)c1ccc(Nc3ccc(F)cc3F)cc1CC2
4 | 0.01 | 0.019 | – | NC(=O)c1ccc2c(c1)C(=O)c1ccc(Nc3ccc(F)cc3F)cc1CC2
5 | 0.002 | 0.083 | – | O=C(NCCF)c1ccc2c(c1)C(=O)c1ccc(Nc3ccc(F)cc3F)cc1CC2
6 | 0.029 | 2.3 | – | CC(=O)Oc1ccc2c(c1)C(=O)c1ccc(Nc3ccc(F)cc3F)cc1CC2
7 | 0.003 | 0.27 | – | CCOC(=O)c1ccc2c(c1)C(=O)c1ccc(Nc3ccc(F)cc3F)cc1CC2
8 | 0.002 | 0.3 | – | CC1(C)OC[C@H](COc2ccc3c(c2)C(=O)c2ccc(Nc4ccc(F)c(NC(=O)c5cccs5)c4)cc2CC3)O1
9 | 0.001 | 0.26 | – | O=C(Nc1cc(Nc2ccc3c(c2)CCc2ccc(OCCN4CCOCC4)cc2C3=O)ccc1F)c1ccccc1
10 | 0.005 | 0.054 | – | COCCNC(=O)c1ccc2c(c1)C(=O)c1ccc(Nc3ccc(F)cc3F)cc1CC2
11 | 0.001 | 0.032 | – | Cc1cc(F)c(NC(=O)c2ccoc2)cc1Nc1ccc2c(c1)CCc1ccc(OCCN3CCOCC3)cc1C2=O
12 | 0.005 | 0.018 | – | COC(=O)CC[C@H](NC(=O)c1ccc2c(c1)C(=O)c1ccc(Nc3ccc(F)cc3F)cc1CC2)C(=O)OC
13 | 0.006 | 0.095 | – | CCOC(=O)CNC(=O)c1ccc2c(c1)C(=O)c1ccc(Nc3ccc(F)cc3F)cc1CC2
14 | 0.002 | 2.4 | – | O=C(Nc1cc(Nc2ccc3c(c2)CCc2ccc(OCCO)cc2C3=O)ccc1F)c1ccccc1
15 | 0.098 | 0.57 | – | Cc1cc(F)c(NC(=O)C2CCOC2)cc1Nc1ccc2c(c1)CCc1ccc(OCCN3CCOCC3)cc1C2=O (configuration not stated)
16 | 0.008 | 0.22 | – | CCCOC(=O)c1ccc2c(c1)C(=O)c1ccc(Nc3ccc(F)cc3F)cc1CC2
17 | 0.003 | 0.064 | – | O=C(NCCCl)c1ccc2c(c1)C(=O)c1ccc(Nc3ccc(F)cc3F)cc1CC2
18 | 0.003 | 0.037 | – | CNC(=O)c1ccc2c(c1)C(=O)c1ccc(Nc3ccc(F)cc3F)cc1CC2
19 | 0.014 | 0.064 | – | CNC(=O)CC[C@H](NC(=O)c1ccc2c(c1)C(=O)c1ccc(Nc3ccc(F)cc3F)cc1CC2)C(=O)NC
20 | 0.021 | 4.1 | – | COc1ccc2c(c1)C(=O)c1ccc(Nc3ccc(F)c(NC(=O)c4ccccc4)c3)cc1CC2
21 | 0.0007 | 0.095 | – | O=C(Nc1cc(Nc2ccc3c(c2)CCc2ccc(OCCN4CCOCC4)cc2C3=O)ccc1F)c1cccs1
22 | 0.005 | 0.027 | – | O=C(NCCO)c1ccc2c(c1)C(=O)c1ccc(Nc3ccc(F)cc3F)cc1CC2
23 | 0.027 | 0.45 | – | CC1(C)OC[C@@H](COc2ccc3c(c2)C(=O)c2ccc(Nc4ccc(F)c(NC(=O)c5ccccc5)c4)cc2CC3)O1

Row | IC50 [2] [µM] | IC50 [3] [µM] | other results | Compound
24 | 0.011 | 0.49 | – | O=C(O)c1ccc2c(c1)C(=O)c1ccc(Nc3ccc(F)cc3F)cc1CC2
25 | 0.001 | 0.24 | – | O=C(OCCN1CCOCC1)c1ccc2c(c1)C(=O)c1ccc(Nc3ccc(F)cc3F)cc1CC2
26 | 0.004 | 0.29 | – | O=C(Nc1cc(Nc2ccc3c(c2)CCc2ccccc2C3=O)c(F)cc1F)c1ccccc1
27 | 0.001 | 0.11 | – | O=C(Nc1cc(Nc2ccc3c(c2)CCc2ccc(OCCN4CCOCC4)cc2C3=O)ccc1F)c1ccoc1
28 | 0.007 | 0.042 | – | O=C(Nc1cc(Nc2ccc3c(c2)CCc2ccc(OC[C@H](O)CO)cc2C3=O)ccc1F)c1cccs1
29 | 0.002 | 0.16 | – | COC(=O)c1ccc2c(c1)C(=O)c1ccc(Nc3ccc(F)cc3F)cc1CC2
30 | 0.007 | 0.46 | – | COC(=O)[C@H](CC(C)C)NC(=O)c1ccc2c(c1)C(=O)c1ccc(Nc3ccc(F)cc3F)cc1CC2
31 | 0.002 | 0.029 | inhibition [4]: Active | O=C(NCC(O)CO)c1ccc2c(c1)C(=O)c1ccc(Nc3ccc(F)cc3F)cc1CC2 (configuration not stated)
32 | 0.02 | 1.5 | – | O=C1c2ccc(Nc3ccc(F)c(NC(=O)C4CCOC4)c3)cc2CCc2ccc(OCCO)cc21 (configuration not stated)
33 | 0.01 | 0.019 | – | CN1CCN(CCCNC(=O)c2ccc3c(c2)C(=O)c2ccc(Nc4ccc(F)cc4F)cc2CC3)CC1
34 | 0.089 | 7.6 | – | C[C@@H](NC(=O)c1ccc2c(c1)C(=O)c1ccc(Nc3ccc(F)cc3F)cc1CC2)C1CCCCC1
35 | 0.002 | 9 | – | O=C(Nc1ccc(F)c(Nc2ccc3c(c2)CCc2ccc(OCCO)cc2C3=O)c1)c1ccccc1
36 | 0.002 | 0.21 | – | O=C(OCCO)c1ccc2c(c1)C(=O)c1ccc(Nc3ccc(F)cc3F)cc1CC2
37 | 0.001 | 0.22 | – | O=C(Nc1cc(Nc2ccc3c(c2)CCc2ccc(OCCN4CCOCC4)cc2C3=O)c(F)cc1F)c1ccccc1
38 | 0.009 | 0.017 | – | O=C(NC(CO)CO)c1ccc2c(c1)C(=O)c1ccc(Nc3ccc(F)cc3F)cc1CC2
39 | 0.01 | 0.027 | – | CN1CCN(CCNC(=O)c2ccc3c(c2)C(=O)c2ccc(Nc4ccc(F)cc4F)cc2CC3)CC1
40 | 0.094 | – | inhibition [5]: inactive | CC(C)C[C@H](NC(=O)c1ccc2c(c1)C(=O)c1ccc(Nc3ccc(F)cc3F)cc1CC2)C(=O)O
41 | – | – | inhibition [6]: Active; inhibition [4]: Active | O=C(NCCN1CCOCC1)c1ccc2c(c1)C(=O)c1ccc(Nc3ccc(F)c(NC(=O)c4ccccc4)c3)cc1CC2
42 | 0.003 | 0.029 | – | O=C(NCCN1CCOCC1)c1ccc2c(c1)C(=O)c1ccc(Nc3ccc(F)cc3F)cc1CC2
43 | 0.003 | 0.05 | – | CS(=O)(=O)CCNC(=O)c1ccc2c(c1)C(=O)c1ccc(Nc3ccc(F)cc3F)cc1CC2
44 | – | 0.012 | – | O=C(Nc1cc(Nc2ccc3c(c2)CCc2ccc(OCCN4CCOCC4)cc2C3=O)c(F)cc1F)c1ccsc1
45 | 0.012 | 0.15 | – | O=C1c2ccc(Nc3cc(NC(=O)C4CCOC4)c(F)cc3F)cc2CCc2ccc(OCCN3CCOCC3)cc21 (configuration not stated)
46 | 0.0003 | 0.026 | – | O=C(Nc1cc(Nc2ccc3c(c2)CCc2ccc(OCCN4CCOCC4)cc2C3=O)ccc1F)c1ccsc1
